# Source: the CheMixHub viscosity set
# Values joined by “and” are separate entries in the source; they are usually repeats but may differ in a detail not shown here. Equal entries are not always repeated. ± gives the uncertainty stated by the source.
# Test: xn = mol fraction of the nth substance listed
smiles,measurement,setting,value
CCCCCCCCCCO + CCCCCC,viscosity,"298.15 K, 101 kPa, x1 = 0.1542",0.53 ± 0.005 mPa·s
same,viscosity,"298.15 K, 101 kPa, x1 = 0.2062",0.652 ± 0.006 mPa·s
same,viscosity,"298.15 K, 101 kPa, x1 = 0.2913",0.903 ± 0.008 mPa·s
same,viscosity,"298.15 K, 101 kPa, x1 = 0.4059",1.404 ± 0.012 mPa·s
same,viscosity,"298.15 K, 101 kPa, x1 = 0.5224",2.204 ± 0.018 mPa·s
same,viscosity,"298.15 K, 101 kPa, x1 = 0.604",3.005 ± 0.023 mPa·s
same,viscosity,"298.15 K, 101 kPa, x1 = 0.7085",4.435 ± 0.034 mPa·s
same,viscosity,"298.15 K, 101 kPa, x1 = 0.8065",6.289 ± 0.045 mPa·s
same,viscosity,"298.15 K, 101 kPa, x1 = 0.8728",7.898 ± 0.053 mPa·s
same,viscosity,"298.15 K, 101.3 kPa, x1 = 0.0533",0.372 ± 0.007 mPa·s
same,viscosity,"298.15 K, 101.3 kPa, x1 = 0.1124",0.458 ± 0.007 mPa·s
same,viscosity,"298.15 K, 101.3 kPa, x1 = 0.1601",0.545 ± 0.007 mPa·s
same,viscosity,"298.15 K, 101.3 kPa, x1 = 0.208",0.651 ± 0.008 mPa·s
same,viscosity,"298.15 K, 101.3 kPa, x1 = 0.2525",0.733 ± 0.008 mPa·s
same,viscosity,"298.15 K, 101.3 kPa, x1 = 0.3012",0.929 ± 0.009 mPa·s
same,viscosity,"298.15 K, 101.3 kPa, x1 = 0.4024",1.377 ± 0.012 mPa·s
same,viscosity,"298.15 K, 101.3 kPa, x1 = 0.5028",2.028 ± 0.016 mPa·s
same,viscosity,"298.15 K, 101.3 kPa, x1 = 0.6001",2.934 ± 0.023 mPa·s
same,viscosity,"298.15 K, 101.3 kPa, x1 = 0.7019",4.26 ± 0.032 mPa·s
same,viscosity,"298.15 K, 101.3 kPa, x1 = 0.7954",5.923 ± 0.043 mPa·s
same,viscosity,"298.15 K, 101.3 kPa, x1 = 0.8487",7.108 ± 0.051 mPa·s
same,viscosity,"298.15 K, 101.3 kPa, x1 = 0.9002",8.453 ± 0.059 mPa·s
same,viscosity,"298.15 K, 101.3 kPa, x1 = 0.9622",10.36 ± 0.071 mPa·s
same,viscosity,"313.15 K, 101 kPa, x1 = 0.1542",0.436 ± 0.004 mPa·s
same,viscosity,"313.15 K, 101 kPa, x1 = 0.2062",0.522 ± 0.005 mPa·s
same,viscosity,"313.15 K, 101 kPa, x1 = 0.2913",0.696 ± 0.006 mPa·s
same,viscosity,"313.15 K, 101 kPa, x1 = 0.4059",1.025 ± 0.009 mPa·s
same,viscosity,"313.15 K, 101 kPa, x1 = 0.5224",1.524 ± 0.012 mPa·s
same,viscosity,"313.15 K, 101 kPa, x1 = 0.604",2.014 ± 0.016 mPa·s
same,viscosity,"313.15 K, 101 kPa, x1 = 0.7085",2.85 ± 0.022 mPa·s
same,viscosity,"313.15 K, 101 kPa, x1 = 0.8065",3.857 ± 0.029 mPa·s
same,viscosity,"313.15 K, 101 kPa, x1 = 0.8728",4.705 ± 0.035 mPa·s
Cc1ccc(Cl)cc1 + CCCCCC,viscosity,"298.15 K, 100 kPa, x1 = 0.0878",0.332 ± 0.007 mPa·s
same,viscosity,"298.15 K, 100 kPa, x1 = 0.1581",0.352 ± 0.008 mPa·s
same,viscosity,"298.15 K, 100 kPa, x1 = 0.2446",0.379 ± 0.008 mPa·s
same,viscosity,"298.15 K, 100 kPa, x1 = 0.2988",0.397 ± 0.008 mPa·s
same,viscosity,"298.15 K, 100 kPa, x1 = 0.4004",0.435 ± 0.009 mPa·s
same,viscosity,"298.15 K, 100 kPa, x1 = 0.47",0.466 ± 0.01 mPa·s
same,viscosity,"298.15 K, 100 kPa, x1 = 0.5234",0.492 ± 0.01 mPa·s
same,viscosity,"298.15 K, 100 kPa, x1 = 0.572",0.519 ± 0.011 mPa·s
same,viscosity,"298.15 K, 100 kPa, x1 = 0.622",0.548 ± 0.012 mPa·s
same,viscosity,"298.15 K, 100 kPa, x1 = 0.681",0.584 ± 0.012 mPa·s
same,viscosity,"298.15 K, 100 kPa, x1 = 0.7857",0.654 ± 0.014 mPa·s
same,viscosity,"298.15 K, 100 kPa, x1 = 0.8603",0.707 ± 0.015 mPa·s
same,viscosity,"298.15 K, 100 kPa, x1 = 0.9366",0.773 ± 0.016 mPa·s
same,viscosity,"308.15 K, 100 kPa, x1 = 0.0878",0.307 ± 0.007 mPa·s
same,viscosity,"308.15 K, 100 kPa, x1 = 0.1581",0.324 ± 0.007 mPa·s
same,viscosity,"308.15 K, 100 kPa, x1 = 0.2446",0.348 ± 0.007 mPa·s
same,viscosity,"308.15 K, 100 kPa, x1 = 0.2988",0.364 ± 0.008 mPa·s
same,viscosity,"308.15 K, 100 kPa, x1 = 0.4004",0.398 ± 0.009 mPa·s
same,viscosity,"308.15 K, 100 kPa, x1 = 0.47",0.426 ± 0.009 mPa·s
same,viscosity,"308.15 K, 100 kPa, x1 = 0.5234",0.448 ± 0.01 mPa·s
same,viscosity,"308.15 K, 100 kPa, x1 = 0.572",0.47 ± 0.01 mPa·s
same,viscosity,"308.15 K, 100 kPa, x1 = 0.622",0.493 ± 0.011 mPa·s
same,viscosity,"308.15 K, 100 kPa, x1 = 0.681",0.524 ± 0.011 mPa·s
same,viscosity,"308.15 K, 100 kPa, x1 = 0.7857",0.584 ± 0.012 mPa·s
same,viscosity,"308.15 K, 100 kPa, x1 = 0.8603",0.632 ± 0.013 mPa·s
same,viscosity,"308.15 K, 100 kPa, x1 = 0.9366",0.687 ± 0.015 mPa·s
same,viscosity,"318.15 K, 100 kPa, x1 = 0.0878",0.285 ± 0.006 mPa·s
same,viscosity,"318.15 K, 100 kPa, x1 = 0.1581",0.3 ± 0.006 mPa·s
same,viscosity,"318.15 K, 100 kPa, x1 = 0.2446",0.322 ± 0.007 mPa·s
same,viscosity,"318.15 K, 100 kPa, x1 = 0.2988",0.337 ± 0.007 mPa·s
same,viscosity,"318.15 K, 100 kPa, x1 = 0.4004",0.367 ± 0.008 mPa·s
same,viscosity,"318.15 K, 100 kPa, x1 = 0.47",0.393 ± 0.008 mPa·s
same,viscosity,"318.15 K, 100 kPa, x1 = 0.5234",0.412 ± 0.009 mPa·s
same,viscosity,"318.15 K, 100 kPa, x1 = 0.572",0.429 ± 0.009 mPa·s
same,viscosity,"318.15 K, 100 kPa, x1 = 0.622",0.449 ± 0.01 mPa·s
same,viscosity,"318.15 K, 100 kPa, x1 = 0.681",0.475 ± 0.01 mPa·s
same,viscosity,"318.15 K, 100 kPa, x1 = 0.7857",0.53 ± 0.011 mPa·s
same,viscosity,"318.15 K, 100 kPa, x1 = 0.8603",0.572 ± 0.012 mPa·s
same,viscosity,"318.15 K, 100 kPa, x1 = 0.9366",0.618 ± 0.013 mPa·s
Cc1ccccc1C + CCCCCC,viscosity,"293.15 K, 101.33 kPa, x2 = 0.29",0.5875 ± 0.012 mPa·s
same,viscosity,"293.15 K, 101.33 kPa, x2 = 0.6",0.4736 ± 0.0095 mPa·s
same,viscosity,"293.15 K, 101.33 kPa, x2 = 0.79",0.3659 ± 0.0073 mPa·s
same,viscosity,"313.15 K, 101.33 kPa, x2 = 0.29",0.4679 ± 0.0094 mPa·s
same,viscosity,"313.15 K, 101.33 kPa, x2 = 0.6",0.3797 ± 0.0076 mPa·s
same,viscosity,"313.15 K, 101.33 kPa, x2 = 0.79",0.3022 ± 0.006 mPa·s
CCCCCCCCCCCC + CCCCCCC,viscosity,"298 K, 101 kPa, x1 = 0.5",0.7879 ± 0.021 mPa·s and 0.7868 ± 0.021 mPa·s
same,viscosity,"298.15 K, 101.33 kPa, x2 = 0.1076",1.219 ± 0.015 mPa·s
same,viscosity,"298.15 K, 101.33 kPa, x2 = 0.2092",1.086 ± 0.014 mPa·s
same,viscosity,"298.15 K, 101.33 kPa, x2 = 0.3109",0.9598 ± 0.012 mPa·s
same,viscosity,"298.15 K, 101.33 kPa, x2 = 0.4064",0.8662 ± 0.011 mPa·s
same,viscosity,"298.15 K, 101.33 kPa, x2 = 0.5062",0.7707 ± 0.01 mPa·s
same,viscosity,"298.15 K, 101.33 kPa, x2 = 0.6081",0.6772 ± 0.009 mPa·s
same,viscosity,"298.15 K, 101.33 kPa, x2 = 0.7046",0.5964 ± 0.0081 mPa·s
same,viscosity,"298.15 K, 101.33 kPa, x2 = 0.8043",0.5157 ± 0.0072 mPa·s
same,viscosity,"298.15 K, 101.33 kPa, x2 = 0.9039",0.4454 ± 0.0065 mPa·s
same,viscosity,"318 K, 101 kPa, x1 = 0.5",0.6058 ± 0.016 mPa·s and 0.6054 ± 0.016 mPa·s
CCCCCCCCCCO + CCCCCCC,viscosity,"298.15 K, 101.33 kPa, x1 = 0.0386",0.4346 ± 0.004 mPa·s
same,viscosity,"298.15 K, 101.33 kPa, x1 = 0.0772",0.4872 ± 0.0044 mPa·s
same,viscosity,"298.15 K, 101.33 kPa, x1 = 0.1584",0.642 ± 0.0056 mPa·s
same,viscosity,"298.15 K, 101.33 kPa, x1 = 0.2472",0.8698 ± 0.0075 mPa·s
same,viscosity,"298.15 K, 101.33 kPa, x1 = 0.3368",1.225 ± 0.01 mPa·s
same,viscosity,"298.15 K, 101.33 kPa, x1 = 0.4264",1.647 ± 0.014 mPa·s
same,viscosity,"298.15 K, 101.33 kPa, x1 = 0.5326",2.338 ± 0.021 mPa·s
same,viscosity,"298.15 K, 101.33 kPa, x1 = 0.6364",3.29 ± 0.03 mPa·s
same,viscosity,"298.15 K, 101.33 kPa, x1 = 0.7498",5.08 ± 0.05 mPa·s
same,viscosity,"298.15 K, 101.33 kPa, x1 = 0.8055",5.926 ± 0.06 mPa·s
same,viscosity,"298.15 K, 101.33 kPa, x1 = 0.8688",7.145 ± 0.075 mPa·s
same,viscosity,"298.15 K, 101.33 kPa, x1 = 0.9331",8.722 ± 0.096 mPa·s
same,viscosity,"308.15 K, 101.33 kPa, x1 = 0.0386",0.3825 ± 0.0036 mPa·s
same,viscosity,"308.15 K, 101.33 kPa, x1 = 0.0772",0.4312 ± 0.004 mPa·s
same,viscosity,"308.15 K, 101.33 kPa, x1 = 0.1584",0.5562 ± 0.0049 mPa·s
same,viscosity,"308.15 K, 101.33 kPa, x1 = 0.2472",0.7324 ± 0.0063 mPa·s
same,viscosity,"308.15 K, 101.33 kPa, x1 = 0.3368",1.034 ± 0.0087 mPa·s
same,viscosity,"308.15 K, 101.33 kPa, x1 = 0.4264",1.331 ± 0.011 mPa·s
same,viscosity,"308.15 K, 101.33 kPa, x1 = 0.5326",1.903 ± 0.016 mPa·s
same,viscosity,"308.15 K, 101.33 kPa, x1 = 0.6364",2.7 ± 0.024 mPa·s
same,viscosity,"308.15 K, 101.33 kPa, x1 = 0.7498",3.93 ± 0.036 mPa·s
same,viscosity,"308.15 K, 101.33 kPa, x1 = 0.8055",4.829 ± 0.046 mPa·s
same,viscosity,"308.15 K, 101.33 kPa, x1 = 0.8688",5.938 ± 0.058 mPa·s
same,viscosity,"308.15 K, 101.33 kPa, x1 = 0.9331",6.788 ± 0.068 mPa·s
